Laboratory results reported in patent US8426394B2, “Progesterone antagonists such as CDB-4124 in the treatment of endometriosis, uterine fibroids, dysmenorrhea, breast cancer, etc” (Repros Therapeutics Inc., priority 2008, dated 2013).

Key:
[1] = system: pre-menopausal adult women diagnosed with endometriosis; test: Six month study of Proellex (CDB-4124) in the treatment of endometriosis; assay type: in vivo, human
Protocol: Pain reduction also occurred more rapidly than with the active control, Lucrin®. The response of pain to treatment in this study was analyzed in two ways. Patients in the study maintained daily pain diaries to record the severity and frequency of pain. In addition, at each office visit, patients filled out endometriosis symptom surveys that included a questionnaire that evaluated intensity of pain on a bad day on a scale of 0-10 with 10 being the greatest intensity. […] There appeared to be a dose dependent effect on pain reduction. […] This decrease in duration of pain was statistically better (p=0.0012) than the 117.8 (74%; standard deviation 51.4 days) pain free days achieved with Lucrin®. […] Patients on CDB-4124 12.5 mg and 25 mg doses had 115.9 (66%; standard deviation 69.2 days) and 133.6 (75%; standard deviation 27.4 days) pain free days, respectively. […] The 25 mg and 12.5 mg doses of CDB-4124 were not statistically different from Lucrin®. […] The intensity of pain was assessed by the question: “On a […], with 0 being no pain and 10 being extreme pain, how intense was your pain on a bad day?” The mean scores for intensity of pain at baseline were 6.3 for the CDB-4124 groups and 6.1 for the Lucrin® group. […] At month three all four active treatment groups had statistically significant reduction in pain compared with baseline, with the following scores: 3.7 (p=0.03) for 12.5 mg CDB-4124, 3.2 (p=0.03) for 25 mg CDB-4124, 1.6 (p=0.015) for 50 mg CDB-4124 and 1.5 (p=0.016) for Lucrin®. These dose related reductions continued until month six when the values for pain intensity were 2.0 (p=0.008), 2.8 (p=0.023), 0.6 (p=0.004) and 0.7 (p=0.016), respectively. Two months after stopping treatment pain returned and was of similar intensity in all four treatment groups.

[2] = system: women with uterine fibroids; test: Three month study in women with uterine fibroids; assay type: in vivo, human; conditions: 12.5 mg or 25 mg daily for three months, begun at day 5 of cycle
Protocol: In a separate study, women with uterine fibroids were administered daily doses of 12.5 mg, 25 mg or 50 mg CDB-4124 for a three month period, beginning at day 5 of each woman's menstrual cycle.

opiate μ receptor (MOP) = opiate μ receptor (MOP) (Homo sapiens, UniProt P35372); test: Affinity for and inhibition of opiate μ receptor; assay type: binding
[3] = system: females suffering from endometriosis; test: Example 12: 12.5 mg CDB-4124 beginning at day 5 versus day 15 of the menstrual cycle; assay type: in vivo, human; conditions: 12.5 mg for a six-month period
Protocol: Females suffering from endometriosis are divided into two groups: a first group receives 12.5 mg of CDB-4124 for a six-month period beginning at day 5 of each female's menstrual cycle; a second group receives 12.5 mg of CDB-4124 for a six-month period beginning at day 15 of each female's menstrual cycle. Endometrial thickness is monitored regularly throughout the six-month period.

[4] = system: pre-menopausal adult women diagnosed with endometriosis; test: Six month study of Proellex (CDB-4124) in the treatment of endometriosis; assay type: in vivo, human; conditions: for change in endometrial thickness from baseline (ultrasound): statistically insignificant

Sequence of opiate μ receptor (MOP) (P35372 whole entry): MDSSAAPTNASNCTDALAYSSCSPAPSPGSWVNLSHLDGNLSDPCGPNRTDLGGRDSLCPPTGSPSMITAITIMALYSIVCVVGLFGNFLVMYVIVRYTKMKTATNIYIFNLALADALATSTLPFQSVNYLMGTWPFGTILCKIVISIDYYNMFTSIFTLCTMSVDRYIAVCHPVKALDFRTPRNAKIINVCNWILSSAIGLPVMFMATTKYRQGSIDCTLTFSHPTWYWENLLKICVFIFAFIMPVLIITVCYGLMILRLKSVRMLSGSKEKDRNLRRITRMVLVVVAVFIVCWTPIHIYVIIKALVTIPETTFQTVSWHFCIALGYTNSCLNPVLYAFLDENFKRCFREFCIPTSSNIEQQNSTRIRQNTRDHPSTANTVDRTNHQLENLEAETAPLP

COCC(=O)[C@@]1(OC(C)=O)CC[C@H]2[C@@H]3CCC4=CC(=O)CCC4=C3[C@@H](c3ccc(N(C)C)cc3)C[C@@]21C [CDB-4124, 21-methoxy-17α-acetoxy-11β-(4 N,N-dimethylaminophenyl)-19-norpregna-4,9-diene-3,20-dione]
intensity of pain on a bad day (score) ([1]; month six, 12.5 mg CDB-4124, scale 0-10, p=0.008): 2.0
intensity of pain on a bad day (score) ([1]; month six, 25 mg CDB-4124, scale 0-10, p=0.023): 2.8
intensity of pain on a bad day (score) ([1]; month six, 50 mg CDB-4124, scale 0-10, p=0.004): 0.6
intensity of pain on a bad day (score) ([1]; month three, 12.5 mg CDB-4124, scale 0-10, baseline 6.3, p=0.03): 3.7
intensity of pain on a bad day (score) ([1]; month three, 25 mg CDB-4124, scale 0-10, baseline 6.3, p=0.03): 3.2
intensity of pain on a bad day (score) ([1]; month three, 50 mg CDB-4124, scale 0-10, baseline 6.3, p=0.015): 1.6
mean endometrial thickness [2]: less than 20 mm
subjects with a significant bleeding episode [2]: None
affinity for / inhibition of the opiate μ receptor (MOP) (opiate μ receptor (MOP)): has affinity for and can inhibit
endometrial thickening, group begun at day 15 versus group begun at day 5 [3]: lesser degree of endometrial thickening
increase in endometrial thickness from baseline (ultrasound) ([4]; 12.5 mg dose, after six months, begun at day 5 of cycle, statistically significant (p 0.016)): 10.9 mm
change in endometrial thickness from baseline (ultrasound) ([4]; 25 mg dose, after six months, begun at day 5 of cycle): 9.8 mm
change in endometrial thickness from baseline (ultrasound) ([4]; 50 mg dose, after six months, begun at day 5 of cycle): 3.9 mm
biomarkers of bone resorption ([4]; any of the dose arms of CDB-4124, three and six months of treatment): no significant changes
